Assay results published in ChEMBL document CHEMBL3885861, “Open TG-GATES”.

Species: Rattus norvegicus
Assay: Open TG-GATES - Regimen: Daily Repeat
Format: toxicity, organism-based, Sprague-Dawley
Set-up: regimen Daily Repeat, gender Male, age 6 weeks
Settings: in vivo, po, 0 mg/kg, route gavage, dose level Control; for APTT / Bas / Eos / Fbg / Ht / Lym / MCH / MCHC / MCV / Mono / Neu / PT / Plat / RBC / Ret / WBC: tissue Blood; for KIDNEY_L / KIDNEY_R / KIDNEY_TOTAL: tissue Kidney; for LIVER: tissue Liver; for ALP / ALT / AST / BUN / CRE / Ca / Cl / DBIL / GLC / IP / K / LDH / Na / PL / RALB / TBIL / TC / TG / TP / gamma-GTP: tissue Plasma

**Q.** Which results are given for `Cc1cccc(Nc2cc(Cl)nc(SCC(=O)O)n2)c1C` [PIRINIXIC ACID]?
**A.** TERMINAL_BW (72 h, time 3 day): 233.5 g; APTT (72 h, time 3 day): 16.4 s; Bas (72 h, time 3 day): 0%; Eos (72 h, time 3 day): 1.2%; Fbg (72 h, time 3 day): 285 mg/dL; Ht (72 h, time 3 day): 39.4%; Lym (72 h, time 3 day): 75.2%; MCH (72 h, time 3 day): 22.2 pg; MCHC (72 h, time 3 day): 34.4%; MCV (72 h, time 3 day): 64.7 fL; Mono (72 h, time 3 day): 2.8%; Neu (72 h, time 3 day): 20.2%; PT (72 h, time 3 day): 12.3 s; Plat (72 h, time 3 day): 109.1 x10_4/uL; RBC (72 h, time 3 day): 609.4 x10_4/ul; Ret (72 h, time 3 day): 7%; WBC (72 h, time 3 day): 85.4 x10_2/uL; KIDNEY_L (72 h, time 3 day): 1 g; KIDNEY_R (72 h, time 3 day): 1 g; KIDNEY_TOTAL (72 h, time 3 day): 1.9 g; LIVER (72 h, time 3 day): 10.9 g; ALP (72 h, time 3 day): 1563.4 IU/L; ALT (72 h, time 3 day): 50 IU/L; AST (72 h, time 3 day): 77 IU/L; BUN (72 h, time 3 day): 15.8 mg/dL; CRE (72 h, time 3 day): 0.2 mg/dL; Ca (72 h, time 3 day): 10.8 mg/dL; Cl (72 h, time 3 day): 105.4 meq/L; DBIL (72 h, time 3 day): 0.024 mg/dL; GLC (72 h, time 3 day): 201.2 mg/dL; IP (72 h, time 3 day): 8.2 mg/dL; K (72 h, time 3 day): 3.8 meq/L; LDH (72 h, time 3 day): 80.4 IU/L; Na (72 h, time 3 day): 143 meq/L; PL (72 h, time 3 day): 155 mg/dL; RALB (72 h, time 3 day): 2.6 g/dL; TBIL (72 h, time 3 day): 0.032 mg/dL; TC (72 h, time 3 day): 79.6 mg/dL; TG (72 h, time 3 day): 92.8 mg/dL; TP (72 h, time 3 day): 5.5 g/dL; gamma-GTP (72 h, time 3 day): 1.6 IU/L; TERMINAL_BW ([…], time 7 day): 265.8 g; TERMINAL_BW ([…], time 14 day): 320.3 g; TERMINAL_BW ([…], time 28 day): 387.5 g; APTT ([…], time 7 day): 16.6 s; Bas ([…], time 7 day): 0%; Eos ([…], time 7 day): 0.4%; Fbg ([…], time 7 day): 312.6 mg/dL; Ht ([…], time 7 day): 40.4%; Lym ([…], time 7 day): 83.4%; MCH ([…], time 7 day): 21.7 pg; MCHC ([…], time 7 day): 34.7%; MCV ([…], time 7 day): 62.3 fL; Mono ([…], time 7 day): 2.2%; Neu ([…], time 7 day): 13.8%; PT ([…], time 7 day): 12.3 s; Plat ([…], time 7 day): 127.6 x10_4/uL; RBC ([…], time 7 day): 648.6 x10_4/ul; Ret ([…], time 7 day): 5.5%; WBC ([…], time 7 day): 89.6 x10_2/uL; APTT ([…], time 14 day): 15.5 s; Bas ([…], time 14 day): 0%; Eos ([…], time 14 day): 0.8%; Fbg ([…], time 14 day): 324.2 mg/dL; Ht ([…], time 14 day): 41.1%; Lym ([…], time 14 day): 77.6%; MCH ([…], time 14 day): 20.2 pg; MCHC ([…], time 14 day): 35.2%; MCV ([…], time 14 day): 57.3 fL; Mono ([…], time 14 day): 2.4%; Neu ([…], time 14 day): 18.6%; PT ([…], time 14 day): 12.4 s; Plat ([…], time 14 day): 119.6 x10_4/uL; RBC ([…], time 14 day): 716.8 x10_4/ul; Ret ([…], time 14 day): 4.1%; WBC ([…], time 14 day): 101.8 x10_2/uL; APTT ([…], time 28 day): 17.7 s; Bas ([…], time 28 day): 0%; Eos ([…], time 28 day): 1.2%; Fbg ([…], time 28 day): 284.6 mg/dL; Ht ([…], time 28 day): 44.2%; Lym ([…], time 28 day): 75%; MCH ([…], time 28 day): 19.8 pg; MCHC ([…], time 28 day): 35.6%; MCV ([…], time 28 day): 55.5 fL; Mono ([…], time 28 day): 2.4%; Neu ([…], time 28 day): 20.6%; PT ([…], time 28 day): 12.3 s; Plat ([…], time 28 day): 100.6 x10_4/uL; RBC ([…], time 28 day): 796.8 x10_4/ul; Ret ([…], time 28 day): 2.3%; WBC ([…], time 28 day): 82.2 x10_2/uL; KIDNEY_L ([…], time 7 day): 1.1 g; KIDNEY_R ([…], time 7 day): 1 g; KIDNEY_TOTAL ([…], time 7 day): 2.1 g; KIDNEY_L ([…], time 14 day): 1.2 g; KIDNEY_R ([…], time 14 day): 1.2 g; KIDNEY_TOTAL ([…], time 14 day): 2.5 g; KIDNEY_L ([…], time 28 day): 1.4 g; KIDNEY_R ([…], time 28 day): 1.3 g; KIDNEY_TOTAL ([…], time 28 day): 2.7 g; LIVER ([…], time 7 day): 12.4 g; LIVER ([…], time 14 day): 14.7 g; LIVER ([…], time 28 day): 15.5 g; ALP ([…], time 7 day): 1820.8 IU/L; ALT ([…], time 7 day): 48.8 IU/L; AST ([…], time 7 day): 67.6 IU/L; BUN ([…], time 7 day): 19.4 mg/dL; CRE ([…], time 7 day): 0.2 mg/dL; Ca ([…], time 7 day): 11 mg/dL; Cl ([…], time 7 day): 105 meq/L; DBIL ([…], time 7 day): 0.02 mg/dL; GLC ([…], time 7 day): 205.6 mg/dL; IP ([…], time 7 day): 7.1 mg/dL; K ([…], time 7 day): 4 meq/L; LDH ([…], time 7 day): 80 IU/L; Na ([…], time 7 day): 142.4 meq/L; PL ([…], time 7 day): 164.2 mg/dL; RALB ([…], time 7 day): 2.7 g/dL; TBIL ([…], time 7 day): 0.036 mg/dL; TC ([…], time 7 day): 80.8 mg/dL; TG ([…], time 7 day): 128.4 mg/dL; TP ([…], time 7 day): 5.9 g/dL; gamma-GTP ([…], time 7 day): 1 IU/L; ALP ([…], time 14 day): 1141.6 IU/L; ALT ([…], time 14 day): 41.2 IU/L; AST ([…], time 14 day): 65.8 IU/L; BUN ([…], time 14 day): 16 mg/dL; CRE ([…], time 14 day): 0.2 mg/dL; Ca ([…], time 14 day): 10.6 mg/dL; Cl ([…], time 14 day): 105.2 meq/L; DBIL ([…], time 14 day): 0.016 mg/dL; GLC ([…], time 14 day): 202.4 mg/dL; IP ([…], time 14 day): 7.1 mg/dL; K ([…], time 14 day): 3.8 meq/L; LDH ([…], time 14 day): 78.8 IU/L; Na ([…], time 14 day): 143.4 meq/L; PL ([…], time 14 day): 139.6 mg/dL; RALB ([…], time 14 day): 2.8 g/dL; TBIL ([…], time 14 day): 0.03 mg/dL; TC ([…], time 14 day): 69 mg/dL; TG ([…], time 14 day): 117.4 mg/dL; TP ([…], time 14 day): 6 g/dL; gamma-GTP ([…], time 14 day): 1.2 IU/L; ALP ([…], time 28 day): 955.2 IU/L; ALT ([…], time 28 day): 36.2 IU/L; AST ([…], time 28 day): 59.4 IU/L; BUN ([…], time 28 day): 14 mg/dL; CRE ([…], time 28 day): 0.2 mg/dL; Ca ([…], time 28 day): 10.7 mg/dL; Cl ([…], time 28 day): 106.6 meq/L; DBIL ([…], time 28 day): 0.018 mg/dL; GLC ([…], time 28 day): 199 mg/dL; IP ([…], time 28 day): 6.5 mg/dL; K ([…], time 28 day): 3.5 meq/L; LDH ([…], time 28 day): 48.8 IU/L; Na ([…], time 28 day): 144.2 meq/L; PL ([…], time 28 day): 139.6 mg/dL; RALB ([…], time 28 day): 2.8 g/dL; TBIL ([…], time 28 day): 0.064 mg/dL; TC ([…], time 28 day): 75.8 mg/dL; TG ([…], time 28 day): 90.4 mg/dL; TP ([…], time 28 day): 6.4 g/dL
